The nature of this assay: Blocker Index (BI), expert graders smelling isovaleric acid + test material swatches against isovaleric acid reference scale. From the text:
Material selection is done by assigning two indices to a test sample material from two reference scales in order to rank odor strengths. The two reference scales are the Fragrance Fidelity Index (FFI) scale and the Blocker Index (BI) scale. The FFI ranks the ability of the test sample material to impart a perceivable odor which could cause interference when combined with another fragrance and the BI ranks the ability of the test sample material to reduce malodor perception. The two methods for assigning the indices to a test sample on the FFI and the BI reference scales are given below.
The first step in the method for assigning a BI to a test sample material on the BI reference scale is to create the BI reference swatches. […] Fabric swatches for this test are white knit polycotton (4 inch×4 inch) swatches from EMC ordered as PC 50/50. The supplier is instructed to strip the swatches first, stripping involves washing twice with a fragrance-free detergent and rinsing three times.
The BI scale contains one clean swatch with no malodor applied. […] These solutions are pipetted to the middle of the swatches. […] After drying for 30 minutes in a vented hood, the swatches are wrapped in aluminum foil to prevent odor contamination to the treated swatch. A clean untreated swatch is also included as the lowest anchor point of reference for malodor strength on the BI scale. […]

With `COC(=O)OC1CCC=CCCC1` (centres unmarked) [Material 1139], the BI (Conc 10 ppm test material on swatch with 20 μL 0.08% isovaleric acid) worked out at 2.0 and the BI (Conc 50 ppm test material on swatch with 20 μL 0.08% isovaleric acid) came out at 2.7.
